Consider 4 molecules from US12661410B2, “Compounds for targeted degradation of RET” (C4 Therapeutics, Inc., priority 2020, dated 2026).

In general, Emax refers to the greatest response seen or fitted, relative to the assay's reference. One may read the DC50 as the concentration at which degradation of the target reaches its halfway point.

The target of experiment [1] is T1, RET (658-1114) (Homo sapiens, UniProt P07949).
T1 construct: 658-1114; expressed in transfected cells; host or cells: 293T.144 (293T cells, generated in-house)
T1 sequence (P07949 658-1114): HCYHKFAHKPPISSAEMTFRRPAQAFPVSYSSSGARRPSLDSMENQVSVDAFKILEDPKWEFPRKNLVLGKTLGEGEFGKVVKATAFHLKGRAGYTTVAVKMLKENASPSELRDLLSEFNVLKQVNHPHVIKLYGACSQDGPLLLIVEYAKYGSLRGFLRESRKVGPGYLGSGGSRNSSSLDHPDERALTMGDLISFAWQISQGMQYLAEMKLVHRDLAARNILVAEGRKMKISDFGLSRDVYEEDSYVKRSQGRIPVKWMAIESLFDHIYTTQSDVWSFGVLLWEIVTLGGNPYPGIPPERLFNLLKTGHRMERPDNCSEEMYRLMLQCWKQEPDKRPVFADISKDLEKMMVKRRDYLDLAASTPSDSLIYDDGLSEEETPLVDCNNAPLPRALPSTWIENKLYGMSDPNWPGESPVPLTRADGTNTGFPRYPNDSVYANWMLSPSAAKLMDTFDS
The experiment can be described thus: HiBiT-Degradation, RET wild-type degradation assay (Nano-Glo HiBiT Lytic), 293T.144 cells. The following applies: for Emax / DC50: 6.0 hours; for Emax: % remaining protein, read-out: 293T.144 RET (658-1114) 6.0 hours (Emax); for DC50: half-maximal degradation concentration, read-out: 293T.144 RET (658-1114) 6.0 hours (DC50). The format is cell-based. In short, it runs like this:
(§1)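 HEK293T lines stably expressing HiBiT-tagged RET kinase domain (WT: 293T.144; G810R: 293T.165) were treated with degraders for 6 h in duplicate, 11-point half-log series from 10 μM top dose. Lysis with Nano-Glo HiBiT Lytic reagent, luminescence read; DC50 and Emax (% remaining protein) derived from dose-response curves.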
A general note: The HiBiT peptide binds its large partner to form an active luciferase.

Experiment [2] has as its target T2, RET(KD: 658-1114 G810R) (Homo sapiens, UniProt P07949, G810R).
T2 construct: 658-1114; expressed in transfected cells; host or cells: 293T.165 (293T cells, generated in-house)
T2 sequence (P07949 658-1114 G810R): T1 sequence (P07949 658-1114) with G153R
The experiment is described as follows: HiBiT-Degradation, RET G810R degradation assay (Nano-Glo HiBiT Lytic), 293T.165 cells. The format is cell-based. As to conditions: for Emax / DC50: 6.0 hours; for Emax: % remaining protein, read-out: 293T.165 RET(KD: 658-1114 G810R) 6.0 hours (Emax); for DC50: half-maximal degradation concentration, read-out: 293T.165 RET(KD: 658-1114 G810R) 6.0 hours (DC50). In short, it runs like this: as §1

Changes are numbered by the printed parent chain. A value given as a limit tells only on which side of the number the result lay.

In the case of `COc1ccc(NC2CCN(c3ccc(-c4nc(-c5cnn([C@H]6CC[C@@H](N7CCN(c8c(F)cc(NC9CCC(=O)NC9=O)cc8F)CC7)CC6)c5)cn5ncc(C#N)c45)cn3)CC2)cn1` (single isomer, unassigned) [Compound 203, 6-(1-((1s, 4s)-4-(4-(4-((2,6-Dioxopiperidin-3-yl)amino)-2,6-difluorophenyl)piperazin-1-yl)cyclohexyl)-1H-pyrazol-4-yl)-4-(6-(4-((6-methoxypyridin-3-yl)amino)piperidin-1-yl)pyridin-3-yl)pyrazolo[1,5-a]pyrazine-3-carbonitrile], in experiment [1], the “293T.144 RET (658-1114) 6.0 hours (IP) [nM]” value (“293T.144 RET” for short) is “++++ (<50 nM = ++++)”, the Emax is < 30% and the DC50 is < 50 nM. Further, in experiment [2], the “293T.165 RET(KD: 658-1114 G810R) 6.0 hours (IP) [nM]” value is “++++ (<50 nM = ++++)”, the Emax was < 30% and the DC50 was < 50 nM.
With `N#Cc1cnn2cc(-c3cnn([C@H]4CC[C@@H](N5CCN(c6c(F)cc(NC7CCC(=O)NC7=O)cc6F)CC5)CC4)c3)nc(-c3ccc(N4CCC5(CC4)CCN5c4nccc(Cl)n4)nc3)c12` (single isomer, unassigned) [Compound 204, 4-(6-(1-(4-Chloropyrimidin-2-yl)-1,7-diazaspiro[3.5]nonan-7-yl)pyridin-3-yl)-6-(1-((1s, 4s)-4-(4-(4-((2,6-dioxopiperidin-3-yl)amino)-2,6-difluorophenyl)piperazin-1-yl)cyclohexyl)-1H-pyrazol-4-yl)pyrazolo[1,5-a]pyrazine-3-carbonitrile], in experiment [1], the “293T.144 RET” value was “++++ (<50 nM = ++++)”, the Emax is < 30% and the DC50 is < 50 nM. In experiment [2], the “293T.165 RET(KD: 658-1114 G810R) 6.0 hours (IP) [nM]” value is “+++ (<100 nM = +++)”, the Emax is < 30% and the DC50 was < 100 nM.
`CCC1(C(=O)NC2CCOCC2)CCN(c2ccc(-c3nc(-c4cnn([C@H]5CC[C@H](N6CCC(c7ccc(N[C@@H]8CCC(=O)NC8=O)cc7F)CC6)CC5)c4)cn4ncc(C#N)c34)cn2)CC1` (stereo in doubt) [Compound 143, 1-(5-(3-cyano-6-(1-((1R,4r)-4-(4-(4-(((R)-2,6-dioxopiperidin-3-yl)amino)-2-fluorophenyl)piperidin-1-yl)cyclohexyl)-1H-pyrazol-4-yl)pyrazolo[1,5-a]pyrazin-4-yl)pyridin-2-yl)-4-ethyl-N-(tetrahydro-2H-pyran-4-yl)piperidine-4-carboxamide]: in experiment [1], the “293T.144 RET” value was “++++ (<50 nM = ++++)”, the Emax is < 30% and the DC50 is < 50 nM. Besides, in experiment [2], the “293T.165 RET(KD: 658-1114 G810R) 6.0 hours (IP) [nM]” value is listed as “++++ (<50 nM = ++++)”, the Emax was < 30% and the DC50 is < 50 nM.
On to `CCC1(C(=O)NC2CCOCC2)CCN(c2ccc(-c3nc(-c4cnn([C@H]5CC[C@H](N6CCC(c7ccc(N[C@H]8CCC(=O)NC8=O)cc7F)CC6)CC5)c4)cn4ncc(C#N)c34)cn2)CC1` (stereo in doubt) [Compound 144, 1-(5-(3-cyano-6-(1-((1S,4r)-4-(4-(4-(((S)-2,6-dioxopiperidin-3-yl)amino)-2-fluorophenyl)piperidin-1-yl)cyclohexyl)-1H-pyrazol-4-yl)pyrazolo[1,5-a]pyrazin-4-yl)pyridin-2-yl)-4-ethyl-N-(tetrahydro-2H-pyran-4-yl)piperidine-4-carboxamide], for which, in experiment [1], the “293T.144 RET” value is listed as “++++ (<50 nM = ++++)”, the Emax is < 30% and the DC50 is < 50 nM. For the same molecule, in experiment [2], the “293T.165 RET(KD: 658-1114 G810R) 6.0 hours (IP) [nM]” value is listed as “++++ (<50 nM = ++++)”, the Emax is < 30% and the DC50 was < 50 nM.
